The record followed here is ChEMBL document CHEMBL1201862, “PubChem BioAssay data set” (2004).

In one assay the test system is HeLa. The experiment in a line: ATP-based viability loss in HeLa cells – cell-based, CellTiter-Glo luminescence, cherry-pick samples, cytotoxicity control for MITF activator project, dose response (AID 540259). It is filed as functional. The note with it: Homo sapiens. Background: In ATP-based viability assays light output follows the ATP content of the culture.
Assay [1] deals with Beta-2 adrenergic receptor (Homo sapiens, UniProt P07550). The experiment in a line: ADRB2 activation measured by internalization – cell-based, FAP fluorogen, flow cytometry, cherry pick 1, dose response (AID 588763). It is filed as functional. (In general: Flow cytometry measures light scatter and fluorescence of single cells or particles in a stream.)
Sequence of Beta-2 adrenergic receptor (P07550 whole entry): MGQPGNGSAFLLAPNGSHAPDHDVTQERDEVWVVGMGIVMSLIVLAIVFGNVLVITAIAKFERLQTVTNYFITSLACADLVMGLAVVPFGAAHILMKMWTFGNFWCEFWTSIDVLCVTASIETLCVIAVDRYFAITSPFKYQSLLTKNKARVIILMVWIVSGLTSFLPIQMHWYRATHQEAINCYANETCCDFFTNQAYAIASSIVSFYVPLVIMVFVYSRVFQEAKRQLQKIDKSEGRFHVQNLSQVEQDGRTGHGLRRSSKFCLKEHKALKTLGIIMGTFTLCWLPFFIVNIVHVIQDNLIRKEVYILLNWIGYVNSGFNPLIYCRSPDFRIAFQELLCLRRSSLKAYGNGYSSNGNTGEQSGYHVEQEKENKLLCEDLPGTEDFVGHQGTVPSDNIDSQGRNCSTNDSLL
The target in assay [2] is Luciferin 4-monooxygenase (Photinus pyralis, UniProt P08659). Nature of the assay: inhibition of purified Photinus pyralis luciferase – biochemical, luminescence, dose response (AID 1891).
Sequence of Luciferin 4-monooxygenase (P08659 whole entry): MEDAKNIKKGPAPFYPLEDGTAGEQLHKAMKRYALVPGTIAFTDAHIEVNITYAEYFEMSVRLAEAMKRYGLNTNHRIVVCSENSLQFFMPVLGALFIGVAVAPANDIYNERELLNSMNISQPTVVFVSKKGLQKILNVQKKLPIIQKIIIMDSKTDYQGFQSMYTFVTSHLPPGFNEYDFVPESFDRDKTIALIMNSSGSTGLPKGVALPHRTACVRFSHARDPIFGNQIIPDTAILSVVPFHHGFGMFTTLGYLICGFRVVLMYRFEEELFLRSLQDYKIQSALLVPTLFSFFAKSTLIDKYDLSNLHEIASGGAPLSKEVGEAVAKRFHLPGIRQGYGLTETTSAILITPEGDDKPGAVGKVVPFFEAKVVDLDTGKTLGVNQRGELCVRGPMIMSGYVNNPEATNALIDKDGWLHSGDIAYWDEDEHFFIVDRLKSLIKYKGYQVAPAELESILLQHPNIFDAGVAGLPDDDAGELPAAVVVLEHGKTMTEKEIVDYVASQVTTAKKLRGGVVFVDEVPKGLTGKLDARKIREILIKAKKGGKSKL
A short description of assay [3]: Luminescence Cell-Based Dose Confirmation HTS to Identify Inhibitors of Platelet Dense Granule Release. [Related pubchem assays: 1663 (Primary HTS), 1678 (Summary of Project)]. It is filed as functional.
Assay [4] deals with Dual specificity tyrosine-phosphorylation-regulated kinase 1A (Rattus norvegicus, UniProt Q63470). It is filed as biochemical, Homo sapiens.
In assay [5] the target is Dual specificity protein kinase CLK1 (Homo sapiens, UniProt P49759). Nature of the assay: inhibition of human CLK1 activity – biochemical, cherry-picked samples, selectivity assay for Dyrk1A inhibitor project, dose response (AID 588811).
Sequence of Dual specificity protein kinase CLK1 (P49759 whole entry): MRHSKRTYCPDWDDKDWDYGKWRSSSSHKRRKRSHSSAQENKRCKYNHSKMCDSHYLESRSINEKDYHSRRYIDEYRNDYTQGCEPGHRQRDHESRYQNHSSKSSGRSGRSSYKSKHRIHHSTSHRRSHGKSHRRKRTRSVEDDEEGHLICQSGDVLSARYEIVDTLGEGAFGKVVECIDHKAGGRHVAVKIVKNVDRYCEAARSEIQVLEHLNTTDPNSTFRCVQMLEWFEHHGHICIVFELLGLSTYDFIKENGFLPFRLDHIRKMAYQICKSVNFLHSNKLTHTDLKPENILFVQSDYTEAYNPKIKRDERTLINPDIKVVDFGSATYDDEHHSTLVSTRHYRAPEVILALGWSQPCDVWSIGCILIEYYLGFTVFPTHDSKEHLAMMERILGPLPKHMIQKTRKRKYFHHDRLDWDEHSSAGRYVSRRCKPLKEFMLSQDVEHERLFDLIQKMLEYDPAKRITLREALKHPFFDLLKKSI
A further assay has as its system Streptococcus. Nature of the assay: GAS UMAA2166 growth inhibition – luminescence, BacTiterGlo, counter-screen for streptokinase expression inhibitor project, dose response (AID 1915).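 Note: potency for reduction of bacterial viability or growth.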 It is filed as functional, organism-based. The conditions noted are these: Streptococcus. Background: Counterscreens check selectivity or assay interference.
The test system of assay [6] is Streptococcus sp. 'group A'. Nature of the assay: Streptococcus pyogenes SK(-)GAS viability under kanamycin – luminescence, BacTiterGlo, confirmation, counter-screen for streptokinase expression inhibitor project, dose response (AID 1900). It is filed as functional, organism-based. The note with it: Streptococcus sp. 'group A'.
The target of the next assay is T1, Streptokinase A (Streptococcus pyogenes serotype M1, UniProt P10520).
T1 sequence (P10520 whole entry): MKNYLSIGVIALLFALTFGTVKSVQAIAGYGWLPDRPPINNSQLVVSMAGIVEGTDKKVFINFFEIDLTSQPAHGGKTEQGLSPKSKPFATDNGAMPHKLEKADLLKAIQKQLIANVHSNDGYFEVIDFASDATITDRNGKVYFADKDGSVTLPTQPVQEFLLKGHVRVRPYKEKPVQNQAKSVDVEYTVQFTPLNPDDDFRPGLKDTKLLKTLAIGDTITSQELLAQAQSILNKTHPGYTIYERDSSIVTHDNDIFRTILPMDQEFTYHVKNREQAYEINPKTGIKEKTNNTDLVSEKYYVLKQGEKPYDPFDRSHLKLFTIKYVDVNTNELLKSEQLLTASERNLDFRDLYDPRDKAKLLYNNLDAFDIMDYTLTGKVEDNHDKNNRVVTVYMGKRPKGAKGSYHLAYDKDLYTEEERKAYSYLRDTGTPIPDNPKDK
Nature of the assay: viability-normalized secreted streptokinase activity reduction – plasminogen activation absorbance, OD405, dose response (AID 1914).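 Note: secreted streptokinase activity via plasminogen activation per viability signal from cell pellet.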 It is filed as functional, Streptococcus pyogenes M1 GAS.

Assay [7] addresses T2, Small ubiquitin-related modifier 1 (Homo sapiens, UniProt P63165). The experiment in a line: SUMO1 protein-protein binding blockers, potency – biochemical, FRET, dose response (AID 624383). It is filed as functional. The note with it: read-out: IC50_Mean.
A short description of assay [8]: DRD fibroblast viability loss – cell-based, non-viral oncogenic, luminescence, dose response (AID 1934). It is filed as functional. The note with it: Homo sapiens.
Assay [9] deals with BJ. The experiment in a line: BJ-TERT-LT-ST fibroblast viability loss – cell-based, RAS-independent, luminescence, dose response (AID 1935).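 Note: BJ fibroblasts immortalized with TERT plus LT and ST oncogenes.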 It is filed as functional. The note with it: Homo sapiens.
A further assay has as its system Escherichia coli. The experiment in a line: microbe, parasite or virus in culture.
The subject of assay [10] is BJ. Nature of the assay: BJ-TERT fibroblast viability loss – cell-based, RAS-independent, luminescence, dose response (AID 1933). It is filed as functional. The note with it: Homo sapiens.
Assay [11] deals with T3, Rac GTPase-activating protein 1 (Homo sapiens, UniProt Q9H0H5).
T3 sequence (Q9H0H5 whole entry): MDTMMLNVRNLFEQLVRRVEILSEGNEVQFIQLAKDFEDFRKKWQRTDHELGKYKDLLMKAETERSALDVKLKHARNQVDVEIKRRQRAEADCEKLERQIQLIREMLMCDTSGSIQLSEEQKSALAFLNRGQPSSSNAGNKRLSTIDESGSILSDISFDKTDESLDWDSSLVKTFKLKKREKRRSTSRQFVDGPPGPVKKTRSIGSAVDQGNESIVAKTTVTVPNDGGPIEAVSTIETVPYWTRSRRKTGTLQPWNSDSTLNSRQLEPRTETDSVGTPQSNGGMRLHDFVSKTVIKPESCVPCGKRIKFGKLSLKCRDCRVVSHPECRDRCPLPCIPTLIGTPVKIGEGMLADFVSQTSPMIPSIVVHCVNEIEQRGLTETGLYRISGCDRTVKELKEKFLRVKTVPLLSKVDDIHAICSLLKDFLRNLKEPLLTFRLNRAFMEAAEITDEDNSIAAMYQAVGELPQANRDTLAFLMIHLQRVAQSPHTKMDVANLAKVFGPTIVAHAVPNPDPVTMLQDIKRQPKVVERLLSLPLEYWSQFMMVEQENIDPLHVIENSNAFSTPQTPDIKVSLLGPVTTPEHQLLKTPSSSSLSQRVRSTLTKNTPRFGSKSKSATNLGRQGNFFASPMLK
The experiment in a line: blockers of MgcRacGAP-driven Rac1 GTP hydrolysis – biochemical, ADP Hunter fluorescence, primary and confirmatory, confirmation (AID 624330). It is filed as functional.

For assay [12], the system named is BJ. The experiment in a line: cells. It is filed as functional, cell-based. The note with it: Homo sapiens.
Assay [13] concerns the target T2, Small ubiquitin-related modifier 1. Nature of the assay: SUMO1 protein interaction blockers, potency – biochemical, fluorescence polarization, uHTS hits, dose response (AID 624382). It is filed as functional. The conditions noted are these: read-out: IC50_Mean.
Assay [14] concerns the target T4, DNA repair protein RAD52 homolog (Homo sapiens, UniProt P43351).
T4 sequence (P43351 whole entry): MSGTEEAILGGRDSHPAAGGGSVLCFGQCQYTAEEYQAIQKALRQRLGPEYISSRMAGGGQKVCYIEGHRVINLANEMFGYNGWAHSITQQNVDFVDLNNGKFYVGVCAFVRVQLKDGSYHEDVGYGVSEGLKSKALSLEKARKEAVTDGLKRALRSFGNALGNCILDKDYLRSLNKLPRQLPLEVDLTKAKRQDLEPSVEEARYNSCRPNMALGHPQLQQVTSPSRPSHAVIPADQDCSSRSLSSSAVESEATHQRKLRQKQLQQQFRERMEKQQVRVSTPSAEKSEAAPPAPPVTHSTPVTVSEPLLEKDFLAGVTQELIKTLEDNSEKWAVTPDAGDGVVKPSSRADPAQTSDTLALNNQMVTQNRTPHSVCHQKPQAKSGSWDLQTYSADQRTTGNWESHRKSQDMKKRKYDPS
It is filed as functional, biochemical.

Assay [15] deals with T5, CAAX prenyl protease 2 (Saccharomyces cerevisiae S288c, UniProt Q03530).
T5 sequence (Q03530 whole entry): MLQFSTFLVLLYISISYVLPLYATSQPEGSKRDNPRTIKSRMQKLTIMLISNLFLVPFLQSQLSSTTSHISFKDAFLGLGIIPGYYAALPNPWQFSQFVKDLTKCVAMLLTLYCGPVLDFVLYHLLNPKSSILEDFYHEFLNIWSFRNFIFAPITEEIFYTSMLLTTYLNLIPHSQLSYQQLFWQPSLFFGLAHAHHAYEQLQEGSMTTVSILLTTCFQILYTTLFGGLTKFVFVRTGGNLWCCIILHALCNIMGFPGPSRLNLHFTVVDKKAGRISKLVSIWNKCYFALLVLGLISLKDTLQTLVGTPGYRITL
It is filed as biochemical.

Assay [16] has as its target T6, CAAX prenyl protease 2 (Homo sapiens, UniProt Q9Y256).
T6 sequence (Q9Y256 whole entry): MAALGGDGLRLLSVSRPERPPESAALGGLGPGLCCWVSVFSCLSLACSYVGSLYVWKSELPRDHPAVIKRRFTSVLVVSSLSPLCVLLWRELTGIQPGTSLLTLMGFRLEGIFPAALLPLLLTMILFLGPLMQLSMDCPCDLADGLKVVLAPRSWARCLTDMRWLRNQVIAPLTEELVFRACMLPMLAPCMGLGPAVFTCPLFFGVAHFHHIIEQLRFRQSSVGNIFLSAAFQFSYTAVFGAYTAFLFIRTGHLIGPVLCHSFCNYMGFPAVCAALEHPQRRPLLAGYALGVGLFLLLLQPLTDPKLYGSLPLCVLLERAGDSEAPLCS
Nature of the assay: inhibition of Ras-converting CAAX protease Rce1 – biochemical, yeast membranes, quenched-peptide fluorescence, cherry-pick, dose response (AID 588849).

Assay [17] can be described thus: Trypanosoma cruzi growth suppression in host cells – NIH3T3 host cells, beta-gal luminescence, confirmation (AID 2044).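 Note: intracellular parasites grown in NIH/3T3 mouse fibroblasts as host cells; luminescent beta-galactosidase reporter signal from transgenic T. cruzi replicating inside host cells; inhibitors lower the luminescence signal.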 It is filed as functional, cell-based.
A short description of assay [18]: NIH3T3 cell viability loss – ATP luminescence, mouse fibroblasts, counter-screen, dose response (AID 2010).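 Note: cells exposed to compound for about 90 hours before reading.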 It is filed as functional, cell-based.
Assay [19] relates to BJ. Nature of the assay: growth inhibition of engineered Ras-driven BJ cells – cell-based, alamar blue fluorescence, cherrypicked samples, dose response (AID 2631).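 Note: confirmatory dose-response assay in RAS-dependent BJ fibroblasts engineered with TERT, LT and ST, with cytotoxicity read by fluorescence.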 It is filed as functional. The note with it: Homo sapiens.
Assay [20] deals with Vero. Nature of the assay: cells. It is filed as functional. The conditions noted are these: Chlorocebus sabaeus.
The test system of assay [21] is Vero. Nature of the assay: viability of Vero cells under compound – cytotoxicity control for flavivirus capping enzyme inhibitors (AID 588742). It is filed as functional. The conditions noted are these: Chlorocebus sabaeus.

Activity calls are given as the source filed them.

T2 sequence (P63165 whole entry): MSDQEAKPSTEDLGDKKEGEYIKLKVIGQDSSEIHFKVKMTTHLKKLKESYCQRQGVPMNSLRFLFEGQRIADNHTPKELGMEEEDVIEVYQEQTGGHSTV

For `c1ccc2oc(-c3ccc4[nH]cnc4c3)nc2c1`, the AC50 in the assay on HeLa was 69.6 µM (active).
Turning to `COc1cc(OC)nc(NC(=O)CSc2nnc(-c3ccccc3)n2C2CCCCC2)n1`, the concentration for a half-maximal effect (EC50) in assay [1] was 1.05 µM (active); in assay [2], > 112 µM (not active); in assay [3] it was > 112 µM (not active).
`O=C(c1cccc(Cl)c1)N1CCC(C(=O)N2CCN(Cc3ccccc3)CC2)CC1`: in [1], the EC50 was 5.89 µM (active).
For the compound `O=C(Nc1nc(-c2ccc3c(c2)OCCO3)cs1)c1ccco1`, the AC50 in [4] is 6.45 µM (active); in [5], 3.98 µM (active). The EC50 with Streptococcus was > 150 µM (not active); in [6], 20.1 µM (active); on Streptokinase A, > 150 µM (not active).
Regarding `Cn1ccc(=Nc2ccc(NC(=O)c3ccc(/N=c4\ccn(C)c5ccc([N+](=O)[O-])cc45)cc3)cc2)cc1`, the results for the IC50 in [7], in assay [11] and in assay [13] were 13.1 µM (active), 35.5 µM (active) and > 66.6 µM (inactive), respectively. Also, the EC50 was 17.1 µM (active) in [8]; > 150 µM (inconclusive) in the assay on BJ [9]; 15.3 µM (active) in the assay with BJ [10]; 2.47 µM (active) in the assay on Streptococcus; 0.976 µM (active) in assay [6]; 28 µM (inconclusive) at Streptokinase A. In the assay with BJ [12], the concentration for a half-maximal effect (EC50) is 18 µM (inconclusive). Further, the AC50 with Escherichia coli was 12 µM (active); in assay [14], 1.28 µM (active).
For the compound `N#Cc1ccc(NC(=O)c2cccs2)nc1`, in the assay on HeLa, the AC50 was 248 µM (active).
Regarding `CCN1CCN(Cc2ccc(NC(=O)c3ccc(C)c(NC(=O)N4CCNC4=O)c3)cc2C(F)(F)F)CC1`, the values for the concentration at half-maximal activity (AC50) in [4] and in [5] were 8.71 µM (active) and 2.29 µM (active), respectively.
With `CCOC(=O)c1c(NC(=O)c2cccc(N3C(=O)CCC3=O)c2)sc(C)c1C`, the figures for the AC50 at CAAX prenyl protease 2 [15] and at CAAX prenyl protease 2 [16] were > 100 µM (inactive) and 31.5 µM (active), respectively.
On to `C=CCn1c(SCc2ccccc2Cl)nnc1-c1sc2nc(C)cc(C)c2c1N`, for which the values for the concentration for a half-maximal effect (EC50) in assay [17], in assay [1] and in assay [18] were 0.161 µM (active), 0.0757 µM (active) and > 60 µM (not active), respectively.
With `COc1ccc(/C=N\NC(=O)c2cccc(F)c2)cc1COc1ccccc1`, the EC50 is 0.286 µM (active) in the assay with BJ [19]; 1.15 µM (active) in assay [8]; 5.12 µM (inconclusive) in the assay with BJ [9]; 0.575 µM (inconclusive) in the assay with BJ [10]; 31.5 µM (active) in the assay with BJ [12]. For the same compound, the half-maximal cytotoxic concentration (CC50) with Vero [20] is 0.35 µM (active).
Consider `COc1cc(CNc2ccc(O)cc2)cc(Br)c1OCc1ccccc1F`, for which, in the assay with Vero [21], the cytotoxic concentration (CC50) is > 40 µM (active).
For the compound `Cc1nc(CNc2ncnc3ccc(-c4ccoc4)cc23)cs1`, the AC50 in assay [5] is 0.0311 µM (active).
Regarding `CSc1ccc(/C=C/C(=O)OCC(=O)NC(C)C)cc1`, at CAAX prenyl protease 2 [16], the AC50 was 35.8 µM (active).
As to `COc1ccc(N2C(=O)c3ccccc3NC23CCCCC3)cc1`, in the assay with HeLa, the AC50 is 300 µM (active).

As a reminder, the AC50 is the concentration at which the activity in the assay is half-maximal. As a reminder, the EC50 is the concentration giving half of the maximal effect. In general, CC50 refers to the concentration that lowers cell viability or growth by half.
